Results: ChEMBL document CHEMBL1201862, “PubChem BioAssay data set” (2004)
Active and inactive are the calls of the source.

Assays:
[1] = target: T1, Long-chain-fatty-acid--AMP ligase FadD28 (Mycobacterium tuberculosis, UniProt P9WQ59); test: Fluorescence polarization aasay to screen for inhibitors that compete for the binding of FadD28 to a bisubstrate Measured in Biochemical System Using Plate Reader - 2147-01_Inhibitor_Dose_CherryPick_Activity.; format: functional, Mycobacterium tuberculosis H37Rv
T1 sequence (P9WQ59 whole entry): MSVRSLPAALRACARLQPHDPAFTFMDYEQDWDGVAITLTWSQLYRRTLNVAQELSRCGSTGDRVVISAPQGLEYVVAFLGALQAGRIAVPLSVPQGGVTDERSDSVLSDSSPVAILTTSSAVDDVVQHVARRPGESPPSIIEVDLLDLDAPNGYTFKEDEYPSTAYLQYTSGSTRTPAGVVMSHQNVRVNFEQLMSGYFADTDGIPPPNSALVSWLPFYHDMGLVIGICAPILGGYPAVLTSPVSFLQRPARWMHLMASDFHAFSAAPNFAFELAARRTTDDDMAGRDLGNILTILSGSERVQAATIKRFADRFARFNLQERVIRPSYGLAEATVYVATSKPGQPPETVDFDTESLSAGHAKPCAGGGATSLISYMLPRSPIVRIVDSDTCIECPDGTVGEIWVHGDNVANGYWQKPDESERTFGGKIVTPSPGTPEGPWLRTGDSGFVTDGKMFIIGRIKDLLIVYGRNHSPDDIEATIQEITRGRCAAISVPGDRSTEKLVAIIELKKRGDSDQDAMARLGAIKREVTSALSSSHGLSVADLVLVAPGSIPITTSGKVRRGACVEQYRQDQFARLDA

[2] = target: T2, DNA repair and recombination protein RAD54-like (Homo sapiens, UniProt Q92698); test: inhibitors of human RAD54 branch migration, confirmation, biochemical, fluorescence, cherry-picked samples, dose series (AID 651657); format: functional
T2 sequence (Q92698 whole entry): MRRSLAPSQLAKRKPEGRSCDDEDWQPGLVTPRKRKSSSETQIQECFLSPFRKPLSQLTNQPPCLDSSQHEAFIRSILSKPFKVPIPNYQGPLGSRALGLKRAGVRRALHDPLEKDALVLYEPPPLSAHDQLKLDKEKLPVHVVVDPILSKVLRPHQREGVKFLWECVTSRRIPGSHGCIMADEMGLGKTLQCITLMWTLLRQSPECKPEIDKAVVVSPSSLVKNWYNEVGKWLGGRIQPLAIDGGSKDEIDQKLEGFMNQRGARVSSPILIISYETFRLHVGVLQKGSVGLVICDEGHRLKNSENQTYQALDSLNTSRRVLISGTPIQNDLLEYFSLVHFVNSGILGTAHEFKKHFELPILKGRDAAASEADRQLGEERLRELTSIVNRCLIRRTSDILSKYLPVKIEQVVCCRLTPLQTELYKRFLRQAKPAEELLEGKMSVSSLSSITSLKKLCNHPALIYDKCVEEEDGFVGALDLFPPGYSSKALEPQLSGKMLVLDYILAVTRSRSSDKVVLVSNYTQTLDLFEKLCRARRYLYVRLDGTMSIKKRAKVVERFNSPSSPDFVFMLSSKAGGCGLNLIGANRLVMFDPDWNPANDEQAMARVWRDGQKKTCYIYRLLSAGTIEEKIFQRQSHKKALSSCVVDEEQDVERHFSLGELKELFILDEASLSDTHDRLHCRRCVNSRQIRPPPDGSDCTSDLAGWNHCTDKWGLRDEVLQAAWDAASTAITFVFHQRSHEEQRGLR

[3] = target: T3, DNA repair protein RAD52 homolog (Homo sapiens, UniProt P43351); format: functional, biochemical
T3 sequence (P43351 whole entry): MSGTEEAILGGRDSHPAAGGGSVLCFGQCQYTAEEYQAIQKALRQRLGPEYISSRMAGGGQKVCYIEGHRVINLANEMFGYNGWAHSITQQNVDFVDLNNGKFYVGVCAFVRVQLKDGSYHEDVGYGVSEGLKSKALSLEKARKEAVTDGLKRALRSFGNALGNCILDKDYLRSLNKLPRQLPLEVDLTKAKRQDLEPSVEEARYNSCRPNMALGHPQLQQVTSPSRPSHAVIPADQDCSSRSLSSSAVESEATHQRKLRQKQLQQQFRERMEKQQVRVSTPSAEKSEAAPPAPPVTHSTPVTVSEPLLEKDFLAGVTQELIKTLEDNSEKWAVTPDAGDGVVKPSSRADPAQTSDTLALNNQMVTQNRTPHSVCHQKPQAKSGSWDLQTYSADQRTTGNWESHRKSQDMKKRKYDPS

[4] = intracellular Trypanosoma cruzi inhibitors in host cells – cell-based, plate reader, cherry-pick samples, set 3, dose response (AID 651818); format: functional;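 also: compounds incubated with infected cells for about four days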
[5] = HEK293T cytotoxicity, dose response, cytotoxicity control for miR-122 modulator project, cell-based, inhibitor set, cherry-pick, set 2 (AID 720697); format: functional
[6] = HEK293T cytotoxicity, dose response, cytotoxicity control for miR-122 modulator project, cell-based, activator set, cherry-pick (AID 720690); format: functional;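 also: HEK293T human cells scored for general mammalian cytotoxicity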
Paired box protein Pax-8 = Paired box protein Pax-8 (Homo sapiens, UniProt Q06710); test: inhibitors of PAX8-driven TPO luciferase reporter, dose response, RMG-I cells, cherry-pick (AID 687027); format: functional, cell-based;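 also: luciferase reporter driven by Pax8 target thyroperoxidase promoter measured by SteadyGlo luminescence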
[7] = NIH:OVCAR-3 ovarian cancer cell cytotoxicity, dose response, PAX8 inhibitor project, plate reader, dry powder samples (AID 743044); format: functional, cell-based
[8] = cytotoxicity in OVCAR8 ovarian cancer cells, dose response, PAX8 project, cell-based, plate reader, dry powder samples (AID 743197); format: functional; settings: OVCAR-8
[9] = P. falciparum Dd2 growth inhibitors, dose response, SYBR Green, cherry-picked samples (AID 1159567); format: functional, cell-based
[10] = HepG2 cell cytotoxicity, dose response, cytotoxicity control, cherry-picked samples (AID 1159577); format: functional, cell-based
[11] = P. falciparum 3D7-ScDHODH growth inhibitors, dose response, SYBR Green, dry powder samples (AID 1159570); format: functional, cell-based;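 also: parasite growth measured after 72 hours of compound exposure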
[12] = P. falciparum Dd2 growth inhibitors, dose response, SYBR Green, dry powder samples (AID 1159566); format: functional, cell-based;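 also: potency for growth inhibition with lower SYBR green DNA signal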
[13] = P. falciparum ATP4 D1247Y mutant growth inhibitors, dose response, NITD609-resistant line, SYBR Green, dry powder (AID 1159571); format: functional, cell-based;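 also: parasites synchronized at ring stage by sorbitol before testing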
[14] = inhibitors of firefly luciferase expression or activity, dose response, H4 neuroglioma cells, luminescence (AID 1990); format: functional, cell-based
[15] = Luminescence Cell-Based Dose Response HTS to Identify Inhibitors of 5'UTR Stem-Loop Driven Prion Protein mRNA Translation in H4 Neuroglioblastoma Cells. [Related pubchem assays: 1827 (Project Summary), 1813 (Primary HTS)]; format: functional

Sequence of Paired box protein Pax-8 (Q06710 whole entry): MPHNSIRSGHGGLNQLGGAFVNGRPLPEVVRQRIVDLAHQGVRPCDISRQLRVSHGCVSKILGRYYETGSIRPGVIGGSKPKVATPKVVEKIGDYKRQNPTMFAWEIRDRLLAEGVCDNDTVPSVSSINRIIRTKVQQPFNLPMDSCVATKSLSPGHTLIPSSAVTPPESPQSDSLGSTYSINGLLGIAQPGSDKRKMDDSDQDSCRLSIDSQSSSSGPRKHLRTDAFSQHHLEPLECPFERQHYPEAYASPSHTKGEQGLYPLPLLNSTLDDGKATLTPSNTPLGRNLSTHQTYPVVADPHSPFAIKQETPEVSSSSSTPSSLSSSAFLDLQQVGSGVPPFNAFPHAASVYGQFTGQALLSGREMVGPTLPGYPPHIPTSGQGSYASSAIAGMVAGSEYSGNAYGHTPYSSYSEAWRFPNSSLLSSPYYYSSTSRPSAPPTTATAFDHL

## NS(=O)(=O)c1ccc(CNC(=O)C(Cc2ccccc2)NS(=O)(=O)c2ccccc2F)cc1 (stereo not drawn)
[1]
  AC50: 39.3 µM (active)

## COc1ccc(Cl)c2sc(N(CCN(C)C)C(=O)C3=COCCO3)nc12
[2]
  AC50: 38 µM (active)

## COc1ccc(-c2cc(NC=O)c3ncc(-c4cccc(C(=O)NCCN(C)C)c4)n3c2)cc1
[2]
  AC50: 9.93 µM (active)
[3]
  AC50: 2.81 µM (active)

## C[C@@H]1CN([C@@H](C)CO)C(=O)c2cc(NC(=O)Nc3ccc(C(F)(F)F)cc3)ccc2O[C@@H]1CN(C)CC1CCCCC1
[4]
  AC50: 5.59 µM (active)
[5]
  AC50: 4.35 µM (active)
[6]
  AC50: 19.1 µM (active)

## Cc1noc(C)c1S(=O)(=O)Nc1ccc2c(c1)C(=O)N([C@H](C)CO)C[C@@H](C)[C@H](CN(C)C(=O)Nc1ccc(C(F)(F)F)cc1)OCCCC[C@@H](C)O2
Paired box protein Pax-8
  AC50: 7.41 µM (active)
[7]
  AC50: 26.7 µM (active)
[8]
  AC50: 38.2 µM (active)

## C[C@@H]1CN([C@@H](C)CO)C(=O)Cc2cc(NC(=O)Nc3ccc(C(F)(F)F)cc3)ccc2O[C@H]1CN(C)CC1CCCCC1
[9]
  AC50: 1.35 µM (active)
[10]
  AC50: 10.4 µM (active)

## C[C@H](CO)N1C[C@H](C)[C@@H](CN(C)Cc2ccc3c(c2)OCO3)Oc2ccc(NC(=O)Nc3ccc(C(F)(F)F)cc3)cc2CC1=O
[11]
  AC50: 0.954 µM (active)
[9]
  AC50: 1.14 µM (active)
[12]
  AC50: 0.94 µM (active)
[10]
  AC50: > 39 µM (inactive)
[13]
  AC50: 0.852 µM (active)

## COc1ccc2c3c([nH]c2c1)[C@H](CO)N(Cc1ccncc1)CC31CCN(Cc2ccc(-c3ccccn3)cc2)CC1
[9]
  AC50: 0.973 µM (active)
[10]
  AC50: 17.6 µM (active)

## CC1(C)Oc2cc3oc(-c4cc(O)cc(O)c4)cc3cc2CC1O (stereo not drawn) [(+/-)-MORACIN P]
[14]
  EC50: 4.04 µM (inconclusive)
[15]
  EC50: 11.1 µM (active)
[1]
  AC50: 65.8 µM (active)

## CCCCCC1C(=O)N2C=C(c3ccccc3)c3ccccc3N2C1=O (stereo not drawn) [CINTAZONE]
[1]
  AC50: 67.3 µM (active)
